For orientation: IC50 means the concentration that inhibits the measured activity by half.

SMILES strings stand for the structures. A value given as a limit tells only on which side of the number the result lay.

The target in assay [1] is Casein kinase II subunit alpha (Homo sapiens, UniProt P68400). Briefly: Selectivity interaction (Ambit KINOMEscan and KiNATiv profiling in Jurkat cells) EUB0000090b CSNK2A1. Particulars: at 1 µM. The class given is cell-based.
The target of assay [2] is T1, Ephrin type-A receptor 1 (Homo sapiens) (UniProt P21709).
T1 sequence (whole entry): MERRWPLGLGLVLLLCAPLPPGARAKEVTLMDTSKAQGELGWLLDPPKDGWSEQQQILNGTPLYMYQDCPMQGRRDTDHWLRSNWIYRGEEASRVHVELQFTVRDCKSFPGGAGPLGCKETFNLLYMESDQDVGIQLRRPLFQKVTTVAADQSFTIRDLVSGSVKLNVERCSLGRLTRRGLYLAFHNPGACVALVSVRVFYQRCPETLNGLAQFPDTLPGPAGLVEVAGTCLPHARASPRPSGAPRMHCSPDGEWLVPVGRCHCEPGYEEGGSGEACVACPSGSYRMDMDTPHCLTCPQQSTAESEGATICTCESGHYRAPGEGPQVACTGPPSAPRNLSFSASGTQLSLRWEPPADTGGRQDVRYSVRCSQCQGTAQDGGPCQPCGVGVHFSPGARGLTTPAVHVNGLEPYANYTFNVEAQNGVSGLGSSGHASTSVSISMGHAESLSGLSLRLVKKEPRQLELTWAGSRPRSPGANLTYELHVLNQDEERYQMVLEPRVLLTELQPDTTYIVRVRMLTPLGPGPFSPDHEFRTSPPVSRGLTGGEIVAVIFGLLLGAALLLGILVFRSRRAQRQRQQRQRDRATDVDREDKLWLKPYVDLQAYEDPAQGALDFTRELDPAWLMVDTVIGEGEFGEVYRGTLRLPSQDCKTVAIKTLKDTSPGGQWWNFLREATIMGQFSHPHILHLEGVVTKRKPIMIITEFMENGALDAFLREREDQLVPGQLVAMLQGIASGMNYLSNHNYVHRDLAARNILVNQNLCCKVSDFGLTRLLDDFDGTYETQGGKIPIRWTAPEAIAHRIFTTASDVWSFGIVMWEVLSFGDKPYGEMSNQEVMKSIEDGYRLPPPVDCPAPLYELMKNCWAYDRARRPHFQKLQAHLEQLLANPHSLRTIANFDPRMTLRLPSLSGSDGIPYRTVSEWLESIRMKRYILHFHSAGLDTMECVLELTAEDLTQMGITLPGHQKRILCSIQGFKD
Briefly: Selectivity interaction (KinomeScan (DiscoverX)) EUB0000229b EPHA1. The settings on record: at 10 µM.

In assay [3] the target is Beta-2 adrenergic receptor (Homo sapiens, UniProt P07550). The experiment in a line: Selectivity interaction (GPCR panel (PDSP screen)) EUB0001079a ADRB2. The settings on record: at 10 µM.
Beta-2 adrenergic receptor, sequence (P07550 whole entry, looked up): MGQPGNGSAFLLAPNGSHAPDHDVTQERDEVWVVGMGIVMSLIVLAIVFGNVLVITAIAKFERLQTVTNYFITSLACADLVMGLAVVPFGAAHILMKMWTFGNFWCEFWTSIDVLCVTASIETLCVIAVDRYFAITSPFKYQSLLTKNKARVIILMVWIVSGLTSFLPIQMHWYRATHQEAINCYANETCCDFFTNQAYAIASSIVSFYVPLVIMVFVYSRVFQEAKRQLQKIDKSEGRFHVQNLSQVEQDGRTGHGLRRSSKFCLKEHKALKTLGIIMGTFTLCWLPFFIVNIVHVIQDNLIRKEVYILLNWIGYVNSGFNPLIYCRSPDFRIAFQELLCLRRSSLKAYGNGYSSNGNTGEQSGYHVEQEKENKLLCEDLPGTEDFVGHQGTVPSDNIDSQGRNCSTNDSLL
Assay [4] has as its target Serine/threonine-protein kinase PLK3 (Homo sapiens, UniProt Q9H4B4). The experiment in a line: Selectivity interaction (KinomeScan (DiscoverX)) EUB0001619a PLK3. Particulars: at 1 µM.
Assay [5] deals with Serine/threonine-protein kinase SBK1 (Homo sapiens) (UniProt Q52WX2). Briefly: Selectivity interaction (KinomeScan (DiscoverX)) EUB0001619a SBK1. Particulars: at 1 µM.
For assay [6], the target named is Serine/threonine-protein kinase haspin (Homo sapiens, UniProt Q8TF76).
Serine/threonine-protein kinase haspin, sequence (Q8TF76 whole entry): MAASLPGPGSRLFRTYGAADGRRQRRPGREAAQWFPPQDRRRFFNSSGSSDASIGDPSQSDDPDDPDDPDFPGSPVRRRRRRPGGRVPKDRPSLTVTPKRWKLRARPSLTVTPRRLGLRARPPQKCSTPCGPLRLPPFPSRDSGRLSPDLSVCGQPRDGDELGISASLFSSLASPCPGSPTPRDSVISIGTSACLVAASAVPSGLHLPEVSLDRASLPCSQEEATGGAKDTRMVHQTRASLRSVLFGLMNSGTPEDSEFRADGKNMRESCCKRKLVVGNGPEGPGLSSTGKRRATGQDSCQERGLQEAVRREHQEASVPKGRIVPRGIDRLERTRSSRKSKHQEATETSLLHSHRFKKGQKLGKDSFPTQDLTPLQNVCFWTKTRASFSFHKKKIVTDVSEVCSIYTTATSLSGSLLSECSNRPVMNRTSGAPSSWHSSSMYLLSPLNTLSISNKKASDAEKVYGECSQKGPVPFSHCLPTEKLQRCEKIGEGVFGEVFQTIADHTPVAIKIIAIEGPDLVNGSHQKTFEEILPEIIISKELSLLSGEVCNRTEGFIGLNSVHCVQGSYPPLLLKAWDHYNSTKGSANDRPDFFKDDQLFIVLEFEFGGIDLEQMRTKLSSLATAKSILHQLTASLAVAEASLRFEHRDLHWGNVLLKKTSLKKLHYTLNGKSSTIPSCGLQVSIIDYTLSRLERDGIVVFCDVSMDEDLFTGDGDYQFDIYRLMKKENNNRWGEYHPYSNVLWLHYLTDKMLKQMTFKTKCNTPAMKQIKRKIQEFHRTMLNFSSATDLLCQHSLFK
For assay [7], the target named is Mitogen-activated protein kinase 1 (Homo sapiens, UniProt P28482).
Mitogen-activated protein kinase 1, sequence (P28482 whole entry): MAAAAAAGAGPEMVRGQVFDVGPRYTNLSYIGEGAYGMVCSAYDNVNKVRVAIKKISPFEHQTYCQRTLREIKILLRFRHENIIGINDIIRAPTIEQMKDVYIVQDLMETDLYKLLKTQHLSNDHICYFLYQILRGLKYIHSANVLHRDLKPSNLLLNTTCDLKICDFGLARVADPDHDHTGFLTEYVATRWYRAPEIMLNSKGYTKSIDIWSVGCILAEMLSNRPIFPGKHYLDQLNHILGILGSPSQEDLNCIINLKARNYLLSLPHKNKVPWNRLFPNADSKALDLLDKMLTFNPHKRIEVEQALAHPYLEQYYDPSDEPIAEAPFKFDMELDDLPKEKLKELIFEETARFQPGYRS
The target in assay [8] is Serine/threonine-protein kinase PLK1 (Homo sapiens, UniProt P53350). The experiment in a line: Selectivity interaction (ProQinase) EUB0000171b PLK1.
Serine/threonine-protein kinase PLK1, sequence (P53350 whole entry): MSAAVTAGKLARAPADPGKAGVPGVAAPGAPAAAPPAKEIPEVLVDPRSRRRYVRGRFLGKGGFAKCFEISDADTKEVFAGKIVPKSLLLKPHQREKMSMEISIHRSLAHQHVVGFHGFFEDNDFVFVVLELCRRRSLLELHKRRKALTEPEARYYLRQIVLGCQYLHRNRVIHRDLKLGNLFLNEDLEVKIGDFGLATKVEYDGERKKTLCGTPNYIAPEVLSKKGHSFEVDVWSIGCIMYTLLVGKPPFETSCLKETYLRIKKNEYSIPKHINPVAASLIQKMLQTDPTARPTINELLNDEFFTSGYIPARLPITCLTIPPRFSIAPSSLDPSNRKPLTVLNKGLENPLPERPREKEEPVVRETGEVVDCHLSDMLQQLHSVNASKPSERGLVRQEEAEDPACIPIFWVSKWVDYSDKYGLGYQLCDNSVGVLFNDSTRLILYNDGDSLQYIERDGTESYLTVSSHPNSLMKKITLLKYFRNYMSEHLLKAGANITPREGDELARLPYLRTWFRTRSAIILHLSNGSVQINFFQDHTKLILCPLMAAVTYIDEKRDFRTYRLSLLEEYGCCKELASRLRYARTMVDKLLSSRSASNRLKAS
Assay [9] addresses Macrophage colony-stimulating factor 1 receptor (Homo sapiens) (UniProt P07333). Briefly: Selectivity interaction (KinomeScan (DiscoverX)) EUB0000045b CSF1R.
Assay [10] concerns the target Ribosomal protein S6 kinase alpha-3 (Homo sapiens, UniProt P51812). Briefly: Selectivity interaction (KinomeScan (DiscoverX)) EUB0000045b RPS6KA3.
For assay [11], the target named is T2, Dual specificity mitogen-activated protein kinase kinase 6 (Homo sapiens) (UniProt P52564).
T2 sequence (whole entry): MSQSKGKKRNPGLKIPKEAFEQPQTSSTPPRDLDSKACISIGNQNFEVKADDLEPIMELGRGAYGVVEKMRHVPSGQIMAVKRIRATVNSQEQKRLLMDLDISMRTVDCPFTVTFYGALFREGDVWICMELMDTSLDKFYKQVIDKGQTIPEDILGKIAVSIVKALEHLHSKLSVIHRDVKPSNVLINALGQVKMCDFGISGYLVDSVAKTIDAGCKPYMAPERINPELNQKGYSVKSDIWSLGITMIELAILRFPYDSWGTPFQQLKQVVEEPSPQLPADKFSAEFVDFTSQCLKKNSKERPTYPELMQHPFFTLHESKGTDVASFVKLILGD
The experiment in a line: Selectivity interaction (KinomeScan (DiscoverX)) EUB0000618a MAP2K6. Particulars: at 10 µM.

The target of assay [12] is T3, Dual specificity tyrosine-phosphorylation-regulated kinase 2 (Homo sapiens) (UniProt Q92630).
T3 sequence (whole entry): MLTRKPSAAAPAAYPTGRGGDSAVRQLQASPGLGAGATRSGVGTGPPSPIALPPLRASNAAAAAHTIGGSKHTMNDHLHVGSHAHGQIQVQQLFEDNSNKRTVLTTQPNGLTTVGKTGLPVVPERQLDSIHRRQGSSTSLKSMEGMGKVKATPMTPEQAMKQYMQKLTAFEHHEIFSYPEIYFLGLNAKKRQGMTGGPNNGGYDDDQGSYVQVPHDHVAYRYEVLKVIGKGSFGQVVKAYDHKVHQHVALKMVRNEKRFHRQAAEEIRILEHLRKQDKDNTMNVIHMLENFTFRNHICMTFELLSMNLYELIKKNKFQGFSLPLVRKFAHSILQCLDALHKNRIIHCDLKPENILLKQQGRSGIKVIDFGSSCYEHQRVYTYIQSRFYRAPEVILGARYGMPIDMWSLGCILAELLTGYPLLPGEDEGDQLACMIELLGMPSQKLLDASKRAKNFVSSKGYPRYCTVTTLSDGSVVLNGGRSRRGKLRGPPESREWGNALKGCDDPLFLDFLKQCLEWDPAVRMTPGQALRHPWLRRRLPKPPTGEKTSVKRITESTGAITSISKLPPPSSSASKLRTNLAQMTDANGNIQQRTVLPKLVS
The experiment in a line: Selectivity interaction (Upstate Kinase Profiler service (Millipore)) EUB0000056c DYRK2. Particulars: at 1 µM.

Macrophage colony-stimulating factor 1 receptor (Homo sapiens), sequence (P07333 whole entry): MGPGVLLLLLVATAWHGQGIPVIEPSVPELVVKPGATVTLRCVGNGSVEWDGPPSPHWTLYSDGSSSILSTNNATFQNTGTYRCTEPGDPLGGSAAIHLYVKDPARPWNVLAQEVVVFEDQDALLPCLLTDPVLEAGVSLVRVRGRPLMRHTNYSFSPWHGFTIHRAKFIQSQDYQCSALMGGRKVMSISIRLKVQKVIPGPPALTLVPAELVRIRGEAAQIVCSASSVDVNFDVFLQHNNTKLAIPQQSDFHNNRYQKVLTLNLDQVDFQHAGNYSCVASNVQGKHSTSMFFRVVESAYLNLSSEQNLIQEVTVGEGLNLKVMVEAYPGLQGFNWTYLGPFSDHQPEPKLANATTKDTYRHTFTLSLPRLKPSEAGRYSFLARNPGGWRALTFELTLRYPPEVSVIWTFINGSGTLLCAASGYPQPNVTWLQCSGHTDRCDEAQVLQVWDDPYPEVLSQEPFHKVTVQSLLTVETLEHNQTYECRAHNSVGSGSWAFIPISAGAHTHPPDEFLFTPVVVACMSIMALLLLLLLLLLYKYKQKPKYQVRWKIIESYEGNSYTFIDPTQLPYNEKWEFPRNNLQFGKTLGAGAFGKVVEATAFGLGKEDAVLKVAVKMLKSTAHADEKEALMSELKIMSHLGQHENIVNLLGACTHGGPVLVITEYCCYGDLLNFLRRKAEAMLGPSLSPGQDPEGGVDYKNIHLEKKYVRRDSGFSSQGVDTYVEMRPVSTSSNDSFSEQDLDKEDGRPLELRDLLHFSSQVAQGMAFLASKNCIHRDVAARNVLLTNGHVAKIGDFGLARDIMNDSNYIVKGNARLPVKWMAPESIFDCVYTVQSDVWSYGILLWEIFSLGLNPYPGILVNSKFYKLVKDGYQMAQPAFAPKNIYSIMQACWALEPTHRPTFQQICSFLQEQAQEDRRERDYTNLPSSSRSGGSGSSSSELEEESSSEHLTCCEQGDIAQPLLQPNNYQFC
Ribosomal protein S6 kinase alpha-3, sequence (P51812 whole entry): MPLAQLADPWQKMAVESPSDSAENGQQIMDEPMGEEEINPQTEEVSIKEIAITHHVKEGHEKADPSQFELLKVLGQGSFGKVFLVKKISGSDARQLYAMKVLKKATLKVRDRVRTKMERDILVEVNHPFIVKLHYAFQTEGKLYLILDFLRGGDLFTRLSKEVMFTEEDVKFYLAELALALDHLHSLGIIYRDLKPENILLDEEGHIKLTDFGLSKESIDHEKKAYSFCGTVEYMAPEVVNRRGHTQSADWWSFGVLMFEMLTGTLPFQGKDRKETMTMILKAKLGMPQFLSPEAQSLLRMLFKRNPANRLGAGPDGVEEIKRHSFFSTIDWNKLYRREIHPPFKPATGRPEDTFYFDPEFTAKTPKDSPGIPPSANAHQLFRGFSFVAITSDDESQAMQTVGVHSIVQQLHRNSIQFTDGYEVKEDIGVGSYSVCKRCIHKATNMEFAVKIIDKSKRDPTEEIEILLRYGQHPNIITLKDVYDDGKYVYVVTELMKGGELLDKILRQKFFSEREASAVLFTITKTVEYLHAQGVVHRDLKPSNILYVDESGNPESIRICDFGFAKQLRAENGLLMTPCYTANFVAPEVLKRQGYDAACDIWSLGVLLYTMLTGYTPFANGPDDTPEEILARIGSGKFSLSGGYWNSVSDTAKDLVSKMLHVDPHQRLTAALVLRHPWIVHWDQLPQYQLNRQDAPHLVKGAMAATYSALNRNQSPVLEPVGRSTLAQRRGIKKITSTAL
Serine/threonine-protein kinase PLK3, sequence (Q9H4B4 whole entry, looked up): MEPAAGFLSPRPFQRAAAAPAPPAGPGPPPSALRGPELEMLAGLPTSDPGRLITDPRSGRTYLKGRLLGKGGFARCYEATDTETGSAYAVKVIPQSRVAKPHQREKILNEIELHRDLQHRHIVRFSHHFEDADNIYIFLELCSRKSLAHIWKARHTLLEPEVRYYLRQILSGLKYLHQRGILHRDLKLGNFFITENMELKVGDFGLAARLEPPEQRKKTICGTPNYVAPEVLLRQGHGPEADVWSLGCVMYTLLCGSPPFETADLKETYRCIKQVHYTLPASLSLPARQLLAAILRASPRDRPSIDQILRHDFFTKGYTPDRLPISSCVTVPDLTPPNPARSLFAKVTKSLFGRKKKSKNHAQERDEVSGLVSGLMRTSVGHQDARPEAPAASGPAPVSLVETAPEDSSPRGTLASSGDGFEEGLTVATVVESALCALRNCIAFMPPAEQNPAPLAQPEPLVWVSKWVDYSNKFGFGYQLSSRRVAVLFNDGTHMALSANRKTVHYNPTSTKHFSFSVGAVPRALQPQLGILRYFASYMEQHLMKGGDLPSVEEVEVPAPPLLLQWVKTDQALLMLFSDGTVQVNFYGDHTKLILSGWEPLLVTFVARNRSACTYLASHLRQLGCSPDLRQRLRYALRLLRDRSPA
Casein kinase II subunit alpha, sequence (P68400 whole entry, looked up): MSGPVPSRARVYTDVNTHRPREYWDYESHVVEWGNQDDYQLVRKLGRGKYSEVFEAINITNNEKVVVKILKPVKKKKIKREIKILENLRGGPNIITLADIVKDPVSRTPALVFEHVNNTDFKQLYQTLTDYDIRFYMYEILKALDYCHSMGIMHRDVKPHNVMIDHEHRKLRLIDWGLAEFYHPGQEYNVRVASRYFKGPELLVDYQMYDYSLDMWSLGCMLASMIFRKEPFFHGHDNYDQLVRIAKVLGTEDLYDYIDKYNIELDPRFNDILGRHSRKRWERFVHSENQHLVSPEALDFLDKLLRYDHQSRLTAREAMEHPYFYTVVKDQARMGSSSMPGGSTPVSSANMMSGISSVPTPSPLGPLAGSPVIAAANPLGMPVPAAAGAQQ

`CN(C)C/C=C/C(=O)Nc1ccc(C(=O)N2CCCC(Nc3ncc(Cl)c(-c4c[nH]c5ccccc45)n3)C2)cc1` (stereo not given) gave a % of control in assay [1] of 78%.

Consider `COc1cc(N(C)c2ccnc3ccc(C(F)(F)F)cc23)cc(OC)c1OC`, for which the % binding in assay [2] came to 90%.

`Nc1cnc(N2CCc3cc(S(=O)(=O)Nc4c(F)cc(Cl)cc4F)cc(N4CCCC4=O)c32)nc1` [TP-020n]: in assay [3], the % of inhibition is -3.08%.

Consider `N#Cc1cccc(-c2c[nH]c3ncnc(N4CCOCC4)c23)c1`, for which the % of control in assay [4] and in assay [5] was 100% each time.

As to `CCc1cccc(CC)c1NC(=O)c1nn(C)c2c1CCc1cnc(Nc3ccc(C(=O)NC4CCN(C)CC4)cc3OC(F)(F)F)nc1-2`, the IC50 in assay [6] and in [7] was above 10 µM each time.

With `C=CC(=O)Nc1cccc(C(=O)Nc2ccc(Nc3cc(-c4[nH]c(SC)nc4C)ccn3)cc2)c1`, the % of control came out at 98% in [8] (at 1 µM) and 96% in [8] (at 5 µM).

Take `C=CC(=O)Nc1cc(-n2c(=O)ccc3cnc4ccc(-c5ccc(NS(C)(=O)=O)cc5)cc4c32)ccc1C`: the % of control came to 94% in assay [9] (at 1 µM), 87% in assay [9] (at 10 µM), 81% in assay [10] (at 1 µM) and 100% in assay [10] (at 10 µM).

In turn, `O[C@H]1CC[C@H](Nc2ncc3nc(Nc4c(F)cc(F)cc4F)n([C@H]4CCOC4)c3n2)CC1` showed a % of control in [11] of 88%.

On to `Cc1ccc(-c2ccc3c(ccc4sc5c(c43)NC[C@@H](C)NC5=O)n2)cn1`, for which the % of inhibition in assay [12] is 27%.

(Values after ChEMBL document CHEMBL5465560, “Selectivity Literature for EUbOPEN Chemogenomic Library” (2024).)
